Laboratory results reported in patent US20080119567A1, “Methods of use of herbal compositions” (priority 2003, published 2008).
Several values for one entry are separate records, joined by “and”; a condition that tells them apart may be missing. Equal entries are not always repeated.

Tests used:
[1] = system: Helicobacter pylori (clinical isolate strain); assay: Gastric ulceration after Helicobacter pylori inoculation in mice (Example 11); type: in vivo, ICR derived mice; details: 24.5 ml/kg × 2 × 7 PO (text: 24.5 mg/kg)
Method: Seven groups of 5 male ICR derived mice weighing 24±2 grams were fasted for 18 hours before the intragastric inoculation of Helicobacter pylori (clinical isolate strain) in suspension at 1.5×10^9 CFU/0.4 ml/mouse. […] Subsequently, test substances and vehicle were each administered orally twice daily (9:00 A.M. and 16:00 P.M.) for […]. omeprazole 1 mg/kg and clarithromycin 10 mg/kg in combination was used as a positive control agent and was administered orally to test animals once daily (9:00 A.M.) for 7 consecutive days. Seven days after infection, on day eight, all animals with overnight fasting were sacrificed and the stomachs were dissected along the greater curvature. Gastric ulceration was scored at four levels according to the degree of hemorrhage and the severity of ulcerative lesions: 0=normal appearance, 1=mild red spots, 2=moderate red spots and/or hemorrhage spots, 3=marked hemorrhage spots. Reduction of concurrent vehicle control score values by 50 percent or more (≧50%) is considered significant. Test substances and vehicle control (2% TWEEN 80® in 0.9% NaCl solution) were each administered orally to test animals twice daily for 7 consecutive days. The Helicobacter pylori (1.5×10^9 CFU/0.4 ml/mouse) inoculation was applied one hour before the first dosing on day 1. […]

[2] = Pharmacokinetics study of intravenous injection with and without geranium oil; type: in vivo, mice
H. pylori (ATCC 43504) = assay: Minimum inhibitory concentration by agar dilution method; type: cell-based, Helicobacter pylori; set-up: key: scored positive (+) for inhibition/eradication of colonies growth; negative (−) for no effect upon growth colonies; details: 0.3 μg/ml; 37° C., 72 hours, n=2
Method: Minimum inhibitory concentration is determined by the agar dilution method. 2 mg of test substance, composition of geranium oil and extracts from S. flavescenes prepared for injections (MIC-1), is dissolved and serially diluted in solvent (distilled water) to desired stock concentrations. For each concentration tested, a 10 μl aliquot is added to a 48-well plate containing 0.99 ml of Columbia agar base supplemented with 7% defibrinated rabbit blood. The inoculum of H. pylori (ATCC 43504) is prepared by suspending in brain heart infustion broth to a density of 5×10^8 CFU/ml. A multiprong-incubating device is used to place approximately 5×10^5 CFU/ml per spot onto the containing agent media. […] The plates are incubated at 37° C. for 72 hours in the microaerophilic condition (mixed gas N2 85%, CO2 10%, and O2 5%) and then visually examined and scored positive (+) for inhibition/eradication of colonies growth or negative (−) for no effect upon growth colonies. […] Each concentration is evaluated in duplicate.
Minimum inhibitory concentration is determined by the agar dilution method. […] The plates are incubated at 37° C. for 72 hours in the microaerophilic condition (mixed gas N2 85%, CO2 10%, and O2 5%) and then visually examined and scored positive (+) for inhibition/eradication of colonies growth or negative (−) for no effect upon growth colonies. […] Each concentration is evaluated in duplicate. […]

Compound: CC(C)=CCCC(C)CCO (centres unmarked) [MIC-20, citronellol]
- Ulceration Score Total ([1]; N=5): 3
- Ulceration Score Individual ([1]; mice 1-5, score 0-3): 0 (3×) and 2 and 1

Compound: O=C1CCC[C@@H]2[C@H]3CCC[N+]4([O-])CCC[C@@H](CN12)[C@@H]34 (some centres unmarked) [oxymatrine]
- effect of addition of geranium oil on absorption and metabolism (HPLC peak areas over time) ([2]; mouse, in vivo, iv): increase the absorption and metabolism

Compound: gentamicin
- Result (inhibition/eradication of colonies growth) (H. pylori (ATCC 43504)): +

Compound: O=C1CCC[C@@H]2[C@H]3CCCN4CCC[C@@H](CN12)[C@@H]34 [matrine]
- effect of addition of geranium oil on absorption and metabolism (HPLC peak areas over time) ([2]; intravenous injection, mice, with geranium oil vs alone): increase the absorption and metabolism
